PubChem BioAssay (NCI)
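A five-concentration, 48-hour dose response in 96-well plates underlies each endpoint, interpolated linearly between surrounding concentrations. TGI is the concentration that stops growth completely.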

Experiments:
Assay in all cases: growth of human tumour cells (NCI), 48 h
K-562 leukemia = test system: K-562 leukemia
NCI/ADR-RES ovarian = test system: NCI/ADR-RES ovarian
A549 NSCLC = test system: A549 NSCLC
SW-620 colon = test system: SW-620 colon
MOLT-4 leukemia = test system: MOLT-4 leukemia
NCI-H226 lung = test system: NCI-H226 lung
UACC-257 melanoma = test system: UACC-257 melanoma
ACHN renal = test system: ACHN renal
SN12C renal = test system: SN12C renal
CCRF-CEM leukemia = test system: CCRF-CEM leukemia
A498 renal = test system: A498 renal
NCI-H23 lung = test system: NCI-H23 lung
PC-3 prostate = test system: PC-3 prostate
LOX IMVI melanoma = test system: LOX IMVI melanoma
KM12 colon = test system: KM12 colon
SK-MEL-2 melanoma = test system: SK-MEL-2 melanoma
SF-539 CNS = test system: SF-539 CNS

Compound | TGI (K-562 leukemia) | TGI (NCI/ADR-RES ovarian) | TGI (A549 NSCLC) | TGI (SW-620 colon) | TGI (MOLT-4 leukemia) | TGI (NCI-H226 lung) | TGI (UACC-257 melanoma) | TGI (ACHN renal) | TGI (SN12C renal) | TGI (CCRF-CEM leukemia) | TGI (A498 renal) | TGI (NCI-H23 lung) | TGI (PC-3 prostate) | TGI (LOX IMVI melanoma) | TGI (KM12 colon) | TGI (SK-MEL-2 melanoma) | TGI (SF-539 CNS)
CCOC(=O)C1(Cc2ccccc2)Cc2cc3c(cc2C1=O)CCC3 (stereo not drawn) | > 100 µM | > 100 µM | > 100 µM | > 100 µM | > 100 µM | > 100 µM | > 100 µM | > 100 µM | > 100 µM | > 100 µM | > 100 µM | > 100 µM | > 100 µM | > 100 µM | > 100 µM | > 100 µM | > 100 µM
CC1(C)N(OC2CCCCO2)C(c2ccccc2)C(c2ccccc2)=[N+]1[O-] (stereo not drawn) | > 100 µM | > 100 µM | > 100 µM | > 100 µM | > 100 µM | > 100 µM | > 100 µM | > 100 µM | > 100 µM | > 100 µM | > 100 µM | > 100 µM | > 100 µM | > 100 µM | > 100 µM | > 100 µM | > 100 µM
COc1ccc(-n2nnc3c(C#N)c(-c4ccccc4)c(C)n3c2=O)cc1 | > 100 µM | > 100 µM | > 100 µM | > 100 µM | – | > 100 µM | > 100 µM | > 100 µM | > 100 µM | 58.5 µM | > 100 µM | > 100 µM | > 100 µM | > 100 µM | > 100 µM | 83.8 µM | > 100 µM
Cn1c(=O)oc2cc(C(=S)N3CCC(Cc4ccccc4)CC3)ccc21 | > 100 µM | > 100 µM | – | > 100 µM | > 100 µM | > 100 µM | > 100 µM | > 100 µM | > 100 µM | > 100 µM | > 100 µM | > 100 µM | > 100 µM | > 100 µM | > 100 µM | > 100 µM | > 100 µM
Cc1ccc(-c2c(C#N)c(-c3ccc([N+](=O)[O-])cc3)c(C#N)c(=O)n2NS(=O)(=O)c2ccc(C)cc2)cc1 | > 100 µM | > 100 µM | > 100 µM | > 100 µM | 50.1 µM | > 100 µM | > 100 µM | > 100 µM | > 100 µM | 73.2 µM | > 100 µM | – | > 100 µM | > 100 µM | > 100 µM | > 100 µM | > 100 µM
c1ccc2c(c1)ccc1ncccc12 | > 100 µM | > 100 µM | > 100 µM | > 100 µM | > 100 µM | > 100 µM | > 100 µM | > 100 µM | > 100 µM | – | > 100 µM | > 100 µM | > 100 µM | > 100 µM | > 100 µM | > 100 µM | > 100 µM
COc1cc(CNc2nc3ccccc3nc2-c2cccs2)cc(OC)c1OC | 97.7 µM | 51.2 µM | > 100 µM | > 100 µM | 29.6 µM | 97.7 µM | > 100 µM | 29.3 µM | 37.8 µM | 52.2 µM | > 100 µM | 65.5 µM | 39.4 µM | 42.6 µM | > 100 µM | – | > 100 µM
CCc1ccc(CCC(=O)O)nc1 | > 100 µM | > 100 µM | > 100 µM | > 100 µM | – | > 100 µM | > 100 µM | > 100 µM | > 100 µM | > 100 µM | > 100 µM | > 100 µM | > 100 µM | > 100 µM | > 100 µM | > 100 µM | > 100 µM
CCCCOP(=O)(OCCCC)/C(C#N)=C/c1ccc(C)o1 | 71.3 µM | 64.4 µM | > 100 µM | > 100 µM | > 100 µM | 78.8 µM | > 100 µM | > 100 µM | > 100 µM | – | > 100 µM | 92.3 µM | 51.4 µM | > 100 µM | > 100 µM | 77.3 µM | > 100 µM
Brc1ccccc1/C=C\C1(c2ccccc2)OCCO1 | > 100 µM | 32.7 µM | 32.8 µM | – | 9.23 µM | 38.2 µM | 34.5 µM | 21.3 µM | 27.4 µM | > 33.2 µM | 25.9 µM | 20.5 µM | 34.1 µM | 11.6 µM | 7.17 µM | 44.7 µM | 25.7 µM
COC(=O)C1=C(C(=O)OC)SC(=C2c3ccsc3-c3sccc32)S1 | > 100 µM | > 100 µM | > 100 µM | > 100 µM | > 100 µM | > 100 µM | > 100 µM | > 100 µM | > 100 µM | > 100 µM | 71.4 µM | 56.2 µM | > 100 µM | > 100 µM | > 100 µM | – | > 100 µM
CCN(CC)CCCC(C)NC(=O)c1cc(-c2nccn2C)nc2ccc(C)cc12 (stereo not drawn) | – | > 100 µM | > 100 µM | > 100 µM | – | > 100 µM | > 100 µM | > 100 µM | – | – | > 100 µM | > 100 µM | > 100 µM | > 100 µM | > 100 µM | > 100 µM | > 100 µM
CCOC(=O)C1=C(OS(=O)(=O)C(F)(F)F)CCCC1 | > 100 µM | > 100 µM | > 100 µM | > 100 µM | > 100 µM | > 100 µM | > 100 µM | > 100 µM | – | > 100 µM | > 100 µM | > 100 µM | > 100 µM | > 100 µM | > 100 µM | > 100 µM | > 100 µM
O=C1C=C(c2c(-c3ccccc3)[nH]c3ccccc23)C(=O)N1c1ccccc1 | 29.9 µM | 66.2 µM | 46.4 µM | 18.4 µM | > 100 µM | 68.5 µM | 30.6 µM | 71.4 µM | 22.5 µM | 49.4 µM | 23.1 µM | 38.6 µM | 21.8 µM | 24 µM | – | 28.4 µM | 39.2 µM
